Tests used:
Experiment in all cases: relative viability (nuclei count vs DMSO), 5 days (fraction); higher = more cells survive
[1] = compound: COc1cc(Nc2c(C#N)cnc3cc(OCCCN4CCN(C)CC4)c(OC)cc23)c(Cl)cc1Cl [Bosutinib] + C[C@]1(O)C[C@@H](c2nc(-c3ccc4ccc(-c5ccccc5)nc4c3)c3c(N)nccn32)C1 [Linsitinib] (partner 1 µM)
In short: (§1)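 The day after seeding in 1536-well plates, lung cancer cell lines were treated by pin tool with a single drug, or with a fixed anchor-drug dose together with five library-drug doses (not always all listed) in √10 steps. After 5 days, a combined fix-and-stain solution (final 0.05% Triton X-100, 1% formaldehyde, 1 ug/ml Hoechst) was added. Nuclei counted on 4× images gave relative viability as treated counts over vehicle counts, reported as the median of duplicate plates.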

[2] = compound: COc1cc(Nc2c(C#N)cnc3cc(OCCCN4CCN(C)CC4)c(OC)cc23)c(Cl)cc1Cl [Bosutinib] + O=C(c1cc(Cc2n[nH]c(=O)c3ccccc23)ccc1F)N1CCN(C(=O)C2CC2)CC1 [Olaparib] (partner 8 µM)
In short: as §1

[3] = compound: COc1cc(Nc2c(C#N)cnc3cc(OCCCN4CCN(C)CC4)c(OC)cc23)c(Cl)cc1Cl [Bosutinib] + O=C(CCCCCCC(=O)Nc1ccccc1)NO [Vorinostat] (partner 1 µM)
In short: as §1

[4] = compound: COc1cc(Nc2c(C#N)cnc3cc(OCCCN4CCN(C)CC4)c(OC)cc23)c(Cl)cc1Cl [Bosutinib] + Cc1nc(Nc2ncc(C(=O)Nc3c(C)cccc3Cl)s2)cc(N2CCN(CCO)CC2)n1 [Dasatinib] (partner 0.075 µM)
In short: as §1

[5] = compound: COc1cc(Nc2c(C#N)cnc3cc(OCCCN4CCN(C)CC4)c(OC)cc23)c(Cl)cc1Cl [Bosutinib] + Cc1cc(Nc2cc(N3CCN(C)CC3)nc(Sc3ccc(NC(=O)C4CC4)cc3)n2)n[nH]1 [Tozasertib] (partner 0.1 µM)
In short: as §1

| Cell Line | relative viability ([1]; first compound 0.01 µM) | relative viability ([1]; first compound 0.03162 µM) | relative viability ([1]; first compound 0.1 µM) | relative viability ([1]; first compound 1 µM) | relative viability ([2]; first compound 0.01 µM) | relative viability ([2]; first compound 0.03162 µM) | relative viability ([2]; first compound 0.1 µM) | relative viability ([2]; first compound 1 µM) | relative viability ([3]; first compound 0.01 µM) | relative viability ([3]; first compound 0.03162 µM) | relative viability ([3]; first compound 0.1 µM) | relative viability ([3]; first compound 1 µM) | relative viability ([4]; first compound 0.01 µM) | relative viability ([4]; first compound 0.03162 µM) | relative viability ([4]; first compound 0.1 µM) | relative viability ([4]; first compound 1 µM) | relative viability ([5]; first compound 0.01 µM) | relative viability ([5]; first compound 0.03162 µM) | relative viability ([5]; first compound 0.1 µM) | relative viability ([5]; first compound 1 µM) |
| --- | --- | --- | --- | --- | --- | --- | --- | --- | --- | --- | --- | --- | --- | --- | --- | --- | --- | --- | --- | --- |
| EMC-BAC-2 | 0.852 | 0.791 | 0.832 | 0.733 | 0.48 | 0.525 | 0.51 | 0.621 | 0.427 | 0.713 | 0.831 | 0.396 | 0.356 | 0.325 | 0.347 | 0.328 | 0.287 | 0.291 | 0.311 | 0.282 |
| EPLC-272H | 1.18 | 1.25 | 1.31 | 1.14 | 0.722 | 0.909 | 0.626 | 0.515 | 0.601 | 0.464 | 0.477 | 0.321 | 0.476 | 0.425 | 0.447 | 0.409 | 0.307 | 0.339 | 0.347 | 0.351 |
| H3255 | 0.94 | 0.974 | 0.994 | 0.45 | 0.568 | 0.56 | 0.598 | 0.421 |  | 0.832 | 0.858 | 0.768 | 0.369 | 0.381 | 0.364 | 0.288 | 0.696 | 0.645 | 0.719 | 0.326 |
| HARA | 1.01 | 0.913 | 0.892 | 0.629 | 0.896 | 0.825 | 0.761 | 0.515 | 0.544 | 0.654 | 0.754 | 0.592 | 0.303 | 0.296 | 0.304 | 0.385 | 0.119 | 0.149 | 0.104 | 0.125 |
| HCC-15 | 0.905 | 0.837 | 0.954 | 0.803 | 0.652 | 0.699 | 0.695 | 0.661 | 0.759 | 0.893 | 0.893 | 0.772 | 0.651 | 0.662 | 0.678 | 0.674 | 0.474 | 0.418 | 0.361 | 0.328 |
| HCC-78 | 0.575 | 0.492 | 0.52 | 0.407 | 0.722 | 0.937 | 0.888 | 0.687 | 0.469 | 0.362 | 0.444 | 0.356 | 0.356 | 0.478 | 0.46 | 0.373 | 0.406 | 0.327 | 0.439 | 0.384 |
| HCC-366 | 0.708 | 0.604 | 0.457 | 0.0753 | 0.406 | 0.378 | 0.376 | 0.19 | 0.433 | 0.378 | 0.375 | 0.286 | 0.755 | 0.627 | 0.692 | 0.66 | 0.161 | 0.142 | 0.104 | 0.0934 |
| HCC-827 | 0.987 | 0.967 | 0.914 | 0.843 | 0.609 | 0.817 | 0.626 | 0.217 | 0.811 | 0.903 | 1.04 | 0.75 | 0.287 | 0.279 | 0.307 | 0.178 | 0.406 | 0.442 | 0.436 | 0.166 |
| HOP-62 | 0.881 | 0.949 | 1.01 | 1.11 |  | 0.395 | 0.451 | 0.435 | 0.641 | 0.687 | 0.682 | 0.652 | 0.692 | 0.639 | 0.671 | 0.688 | 0.394 | 0.411 | 0.35 | 0.381 |
| LC-2-ad | 0.902 | 0.879 | 0.871 | 0.78 | 0.719 | 0.672 | 0.678 | 0.732 | 0.735 | 0.659 | 0.673 | 0.71 | 0.678 | 0.701 | 0.659 | 0.906 | 0.469 | 0.401 | 0.506 | 0.482 |
| LCLC-97TM1 | 0.213 | 0.216 | 0.209 | 0.175 | 0.41 | 0.402 | 0.372 | 0.351 | 0.925 | 0.763 | 0.811 | 0.823 | 0.849 | 0.869 | 0.851 | 0.685 | 0.461 | 0.267 | 0.244 | 0.362 |
| LCLC-103H | 1.11 | 1.12 | 1.04 | 1.04 | 0.734 | 0.774 | 0.741 | 0.782 | 0.799 | 0.858 | 0.889 | 0.841 | 0.513 | 0.502 | 0.567 | 0.449 | 0.486 | 0.497 | 0.48 | 0.484 |
| LK-2 | 0.671 | 0.55 | 0.523 | 0.337 | 0.538 | 0.962 | 0.807 | 0.707 | 0.267 | 0.278 | 0.263 | 0.313 | 0.288 | 0.287 | 0.264 | 0.296 | 0.194 | 0.168 | 0.191 | 0.178 |
| LOU-NH91 | 0.939 | 0.921 | 0.834 | 0.521 | 0.889 | 0.868 | 0.898 | 0.697 | 0.903 | 0.922 | 0.92 | 0.819 | 0.578 | 0.577 | 0.547 | 0.556 | 0.64 | 0.645 | 0.607 | 0.538 |
| LU99A | 0.587 | 0.576 | 0.584 | 0.678 | 0.234 | 0.291 | 0.284 | 0.245 | 0.51 | 0.495 | 0.573 | 0.483 | 0.611 | 0.582 | 0.635 | 0.548 | 0.275 | 0.276 | 0.291 | 0.311 |
| LXF-289 | 0.948 | 0.971 | 0.946 | 1.01 | 1.05 | 1.12 | 0.972 | 1.24 | 0.808 | 0.852 | 0.792 | 0.758 | 0.231 | 0.213 | 0.2 | 0.224 | 0.183 | 0.191 | 0.238 | 0.179 |
